The source of these data is ChEMBL document CHEMBL1148702, “Orally bioavailable potent soluble epoxide hydrolase inhibitors” (J Med Chem, 2007).

In the first data set the test system is Liver microsomes.
Test: not given
The conditions noted are these: human.
The molecule `O=C(NC12CC3CC(CC(C3)C1)C2)N[C@H]1CC[C@@H](OCc2c(Cl)cccc2Cl)CC1` yielded a Stability of 26%.
For `CC(C)Oc1cc(F)c(CO[C@H]2CC[C@@H](NC(=O)NC34CC5CC(CC(C5)C3)C4)CC2)c(F)c1`, the Stability is 29%.
The same measure, in the same setting: the same measure for `O=C(NC12CC3CC(CC(C3)C1)C2)N[C@H]1CC[C@@H](OCc2ccc(Br)cc2)CC1`: 20%; for `O=C(NC12CC3CC(CC(C3)C1)C2)N[C@H]1CC[C@H](OCc2ccc(Br)cc2)CC1`: 41%.
Same read-out and setting: in the case of `O=C(NC12CC3CC(CC(C3)C1)C2)N[C@H]1CC[C@H](OCc2ccccc2Cl)CC1` it was 54%; in that of `O=C(NC12CC3CC(CC(C3)C1)C2)N[C@H]1CC[C@H](OCc2c(Cl)cccc2Cl)CC1`, 51%.
As for `O=C(NC12CC3CC(CC(C3)C1)C2)N[C@H]1CC[C@H](Oc2ccc(Br)cc2)CC1`, the Stability amounted to 23%.
Consider `O=C(NC12CC3CC(CC(C3)C1)C2)N[C@H]1CC[C@H](Oc2ccc(F)cc2)CC1`, for which the Stability is 69%.
Same read-out and setting: the same measure for `O=C(NC12CC3CC(CC(C3)C1)C2)N[C@H]1CC[C@@H](Oc2ccc(Br)cc2)CC1`: 35%; for `COc1ccc(O[C@H]2CC[C@@H](NC(=O)NC34CC5CC(CC(C5)C3)C4)CC2)cc1`: 14%.
Still for that read-out and setting: the same measure for `O=C(NC12CC3CC(CC(C3)C1)C2)N[C@H]1CC[C@@H](Oc2ccc([N+](=O)[O-])cc2)CC1`: 15%.
In turn, `O=C(NC12CC3CC(CC(C3)C1)C2)N[C@H]1CC[C@@H](OCc2ccccc2Cl)CC1` yielded a Stability of 25%.
Same read-out and setting: the same measure for `O=C(NC12CC3CC(CC(C3)C1)C2)N[C@H]1CC[C@@H](Oc2ccc(F)cc2)CC1`: 21%.
On the same count and under the same terms, in the case of `O=C(NC12CC3CC(CC(C3)C1)C2)N[C@H]1CC[C@H](OCc2c(F)cccc2F)CC1` it was 43%; in that of `O=C(NC12CC3CC(CC(C3)C1)C2)N[C@H]1CC[C@@H](OCc2c(F)cccc2F)CC1`, 19%; in that of `O=C(NC12CC3CC(CC(C3)C1)C2)N[C@H]1CC[C@H](OCc2ccccc2)CC1`, 67%.
Same read-out and setting: in the case of `Cc1ccccc1CO[C@H]1CC[C@H](NC(=O)NC23CC4CC(CC(C4)C2)C3)CC1` it was 67%.
`O=C(NC12CC3CC(CC(C3)C1)C2)N[C@H]1CC[C@@H](Oc2cc(F)cc(F)c2)CC1` yielded a Stability of 20%.
`Cc1ccccc1CO[C@H]1CC[C@@H](NC(=O)NC23CC4CC(CC(C4)C2)C3)CC1` came in with a Stability of 14%.
Still for that read-out and setting: the same measure for `CC(C)Oc1cc(F)c(CO[C@H]2CC[C@H](NC(=O)NC34CC5CC(CC(C5)C3)C4)CC2)c(F)c1`: 34%.
The same measure, in the same setting: in the case of `COc1ccc(O[C@H]2CC[C@H](NC(=O)NC34CC5CC(CC(C5)C3)C4)CC2)cc1` it was 82%.

Tested on in a further data set: not listed separately
In words: in vivo. The settings on record: dog, plasma, po, 0.3 mg/kg.
For orientation: AUC means the area under the concentration-time curve, a measure of exposure. As to `O=C(O)CCCCCCCCCCCNC(=O)NC12CC3CC(CC(C3)C1)C2`, the AUC is 0.0667 µM·h.
Same read-out and setting: in the case of `CCOCCOCCOCCCCCNC(=O)NC12CC3CC(CC(C3)C1)C2` it was 0.317 µM·h.
